Measured values: US8614324B2, “Filamin A binding anti-inflammatory and analgesic” (priority 2008, dated 2013)

Columns and labels:
[1] = molecular target: Bn-VAKGL pentapeptide of filamin A (FLNA) (Homo sapiens, UniProt P21333); experiment: FITC-NLX-based FLNA screening assay (FLNA peptide binding assay); conditions: 10 nM FITC-NLX, read-out: Percent inhibition of FITC-NLX binding
Experimental: The final assay volume is 100 μl.
Compounds are tested in triplicate or quadruplicate.

filamin A = filamin A (Homo sapiens, UniProt P21333); conditions: read-out: affinity of binding to filamin A; cited from earlier work
Sequence of filamin A (P21333 whole entry): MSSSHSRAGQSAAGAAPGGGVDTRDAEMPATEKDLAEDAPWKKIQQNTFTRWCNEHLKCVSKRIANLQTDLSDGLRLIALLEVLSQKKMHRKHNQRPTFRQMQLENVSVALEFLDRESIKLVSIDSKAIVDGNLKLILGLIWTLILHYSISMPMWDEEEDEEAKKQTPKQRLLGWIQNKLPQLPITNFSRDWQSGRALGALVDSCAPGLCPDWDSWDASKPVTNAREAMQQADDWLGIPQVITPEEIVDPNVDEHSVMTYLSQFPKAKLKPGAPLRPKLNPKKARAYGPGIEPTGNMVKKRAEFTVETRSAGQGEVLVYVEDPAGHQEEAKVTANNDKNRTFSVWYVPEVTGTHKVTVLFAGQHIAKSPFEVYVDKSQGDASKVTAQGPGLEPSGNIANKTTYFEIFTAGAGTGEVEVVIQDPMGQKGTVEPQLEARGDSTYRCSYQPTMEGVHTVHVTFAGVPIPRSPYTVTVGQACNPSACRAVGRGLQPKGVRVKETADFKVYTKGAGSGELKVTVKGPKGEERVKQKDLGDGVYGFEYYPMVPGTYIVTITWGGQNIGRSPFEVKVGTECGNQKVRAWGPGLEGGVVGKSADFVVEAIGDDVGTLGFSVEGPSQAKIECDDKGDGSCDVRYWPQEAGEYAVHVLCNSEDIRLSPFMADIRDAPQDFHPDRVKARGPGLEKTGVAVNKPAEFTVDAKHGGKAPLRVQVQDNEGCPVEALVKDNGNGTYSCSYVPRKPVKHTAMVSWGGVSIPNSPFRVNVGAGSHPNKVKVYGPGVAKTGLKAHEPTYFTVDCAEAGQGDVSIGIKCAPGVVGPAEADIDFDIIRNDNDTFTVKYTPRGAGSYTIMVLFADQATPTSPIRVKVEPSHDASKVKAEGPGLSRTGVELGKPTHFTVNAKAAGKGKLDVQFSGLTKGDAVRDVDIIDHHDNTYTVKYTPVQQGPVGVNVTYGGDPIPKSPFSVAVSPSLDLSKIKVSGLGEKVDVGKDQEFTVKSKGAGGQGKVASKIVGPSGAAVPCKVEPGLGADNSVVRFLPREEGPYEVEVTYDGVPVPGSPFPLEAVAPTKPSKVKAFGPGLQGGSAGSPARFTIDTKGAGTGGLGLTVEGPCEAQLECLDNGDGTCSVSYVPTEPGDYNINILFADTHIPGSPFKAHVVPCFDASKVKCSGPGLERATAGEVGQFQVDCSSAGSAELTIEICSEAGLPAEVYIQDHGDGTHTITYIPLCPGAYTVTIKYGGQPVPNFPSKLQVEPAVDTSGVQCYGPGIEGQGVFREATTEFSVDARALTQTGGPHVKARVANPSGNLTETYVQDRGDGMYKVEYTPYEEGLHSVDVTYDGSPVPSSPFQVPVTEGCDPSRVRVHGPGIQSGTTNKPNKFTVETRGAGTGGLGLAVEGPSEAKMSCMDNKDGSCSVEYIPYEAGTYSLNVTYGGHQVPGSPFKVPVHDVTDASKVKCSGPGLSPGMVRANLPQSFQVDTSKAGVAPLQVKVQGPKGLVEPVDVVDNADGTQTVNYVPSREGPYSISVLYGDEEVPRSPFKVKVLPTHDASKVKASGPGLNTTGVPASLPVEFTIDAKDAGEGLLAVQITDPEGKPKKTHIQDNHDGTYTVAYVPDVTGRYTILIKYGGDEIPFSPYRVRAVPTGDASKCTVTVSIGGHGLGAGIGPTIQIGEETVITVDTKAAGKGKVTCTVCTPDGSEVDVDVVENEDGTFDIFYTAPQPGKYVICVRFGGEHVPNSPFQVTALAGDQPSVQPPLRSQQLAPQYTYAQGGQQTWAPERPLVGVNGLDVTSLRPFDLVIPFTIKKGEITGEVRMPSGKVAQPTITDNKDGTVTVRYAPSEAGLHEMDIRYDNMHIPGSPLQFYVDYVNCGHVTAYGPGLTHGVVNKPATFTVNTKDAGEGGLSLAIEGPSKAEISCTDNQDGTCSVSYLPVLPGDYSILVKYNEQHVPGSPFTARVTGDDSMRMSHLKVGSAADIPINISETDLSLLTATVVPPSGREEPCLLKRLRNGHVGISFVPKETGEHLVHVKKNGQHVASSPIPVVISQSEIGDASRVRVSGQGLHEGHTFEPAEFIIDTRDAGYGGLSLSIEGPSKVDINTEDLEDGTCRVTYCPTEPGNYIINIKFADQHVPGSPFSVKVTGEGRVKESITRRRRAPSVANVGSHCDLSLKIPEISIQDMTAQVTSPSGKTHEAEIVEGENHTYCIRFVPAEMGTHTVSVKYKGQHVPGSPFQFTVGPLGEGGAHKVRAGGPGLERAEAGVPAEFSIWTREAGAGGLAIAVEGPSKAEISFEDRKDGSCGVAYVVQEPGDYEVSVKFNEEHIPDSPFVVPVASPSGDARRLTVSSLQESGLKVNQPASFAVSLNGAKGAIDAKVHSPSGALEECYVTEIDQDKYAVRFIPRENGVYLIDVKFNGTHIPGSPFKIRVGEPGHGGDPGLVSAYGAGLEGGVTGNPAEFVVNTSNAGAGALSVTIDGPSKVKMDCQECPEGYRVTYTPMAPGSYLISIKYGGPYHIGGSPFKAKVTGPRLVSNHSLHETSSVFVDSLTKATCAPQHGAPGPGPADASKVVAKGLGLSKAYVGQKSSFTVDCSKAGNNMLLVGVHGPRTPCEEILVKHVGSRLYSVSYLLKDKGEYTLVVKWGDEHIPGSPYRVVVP

In the case of C=CCN1CC[C@]23c4c5ccc(O)c4O[C@H]2C(=O)CC[C@@]3(O)[C@H]1C5 [NLX, naloxone, reference compound], the inhibition at 0.01 µM ([1]; 0.01 μM compound) is reported as 40.6%, the inhibition at 0.1 µM ([1]; 0.1 μM compound) is reported as 47.8% and the inhibition at 1 µM ([1]; 1 μM compound) is reported as 51.5%. For the same molecule, the Kd (filamin A) was ~4 pM.
